Experiments:
bermudagrass = assay: Test C pre-/postemergence test; format: in vivo, Cynodon dactylon; conditions: for Plant response rating, Bermudagrass: 31 g ai/ha
Summary of the method: (§1)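 Seeds were planted and treated preemergence with test chemical in a non-phytotoxic solvent mixture containing surfactant. Postemergence applications of the same formulation went onto plants 2 to 18 cm tall (1- to 4-leaf stage). A dash marks no test result.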

giant foxtail = assay: Test A pre-/postemergence greenhouse test; format: in vivo, Setaria faberi; conditions: for Foxtail, Giant plant response rating: 0 to 100 scale; for Plant response rating, Foxtail, Giant: 0 to 100 scale where 0 is no effect and 100 is complete control
Summary of the method: (§2)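 Each test compound, dissolved in a non-phytotoxic solvent mixture with surfactant, was sprayed directly onto seeded soil (loam/sand blend) and, at the same moment, onto seedlings carrying one to two leaves. Around ten greenhouse days later, plants were rated visually for injury relative to untreated controls.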

lambsquarters = assay: Test C pre-/postemergence test; format: in vivo, Chenopodium album; conditions: for Plant response rating, Lambsquarters: 31 g ai/ha, scale 0 to 100 (0 no effect, 100 complete control)
Summary of the method: as §1

eastern black nightshade = assay: Test C pre-/postemergence test; format: in vivo, Solanum ptycanthum
Summary of the method: as §1

Surinam grass = assay: Test C pre-/postemergence test; format: in vivo, Brachiaria decumbens; conditions: for Plant response rating, Surinam Grass: 31 g ai/ha, scale 0 to 100 (0 no effect, 100 complete control)
Summary of the method: as §1

Goosegrass = assay: Test C pre-/postemergence test; format: in vivo, Eleusin indica; conditions: for Plant response rating, Goosegrass: 31 g ai/ha, scale 0 to 100 (0 no effect, 100 complete control)
Summary of the method: as §1

redroot pigweed = assay: Test A pre-/postemergence greenhouse test; format: in vivo, Amaranthus retroflexus; conditions: for Pigweed plant response rating: 0 to 100 scale; for Plant response rating, Pigweed: 0 to 100 scale where 0 is no effect and 100 is complete control
Summary of the method: as §2

wheat [1] = assay: Test C pre-/postemergence test; format: in vivo, Triticum aestivum; conditions: for Plant response rating, Wheat: 31 g ai/ha, scale 0 to 100 (0 no effect, 100 complete control)
Summary of the method: as §1

crabgrass = assay: Test C pre-/postemergence test; format: in vivo, Digitaria sanguinalis; conditions: for Plant response rating, Crabgrass, Large: 31 g ai/ha, scale 0 to 100 (0 no effect, 100 complete control)
Summary of the method: as §1

corn = assay: Test A pre-/postemergence greenhouse test; format: in vivo, Zea mays; conditions: for Corn plant response rating: 0 to 100 scale; for Plant response rating, Corn: 0 to 100 scale where 0 is no effect and 100 is complete control
Summary of the method: as §2

pigweed = assay: Test C pre-/postemergence test; format: in vivo, Amaranthus retroflexus; conditions: for Plant response rating, Pigweed: 31 g ai/ha, scale 0 to 100 (0 no effect, 100 complete control)
Summary of the method: as §1

umbrella sedge = assay: Test C flooded paddy test; format: in vivo, Cyperus difformis; conditions: Flood
Summary of the method: (§3)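 In-water treatment: compound dosed into 3 cm flood over soil, water level unchanged throughout. Controls run alongside; visual assessment at day 13–15.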

rice = assay: Test C flooded paddy test; format: in vivo, Oryza sativa; conditions: Flood
Summary of the method: as §3

morningglory = assay: Test A pre-/postemergence greenhouse test; format: in vivo, Ipomoea spp.; conditions: for Morningglory plant response rating: 0 to 100 scale; for Plant response rating, Morningglory: 0 to 100 scale where 0 is no effect and 100 is complete control
Summary of the method: as §2

[2] = tested on: common (oilseed) sunflower; assay: Test C pre-/postemergence test; format: in vivo, Helianthus annuus; conditions: for Plant response rating, Sunflower: 31 g ai/ha, scale 0 to 100 (0 no effect, 100 complete control)
Summary of the method: as §1

wheat [3] = assay: Test A pre-/postemergence greenhouse test; format: in vivo, Triticum aestivum; conditions: for Wheat plant response rating: 0 to 100 scale; for Plant response rating, Wheat: 0 to 100 scale where 0 is no effect and 100 is complete control
Summary of the method: as §2

barnyardgrass = assay: Test A pre-/postemergence greenhouse test; format: in vivo, Echinochloa crus-galli; conditions: for Barnyardgrass plant response rating: 0 to 100 scale; for Plant response rating, Barnyardgrass: 0 to 100 scale where 0 is no effect and 100 is complete control
Summary of the method: as §2

[4] = 62 g ai/ha, Preemergence, scale 0 to 100 (0 no effect, 100 complete control)
[5] = 125 g ai/ha, preemergence, scale 0 (no effect) to 100 (complete control)
[6] = Preemergence, scale 0 to 100 (0 no effect, 100 complete control)
[7] = preemergence, 250 g ai/ha, scale 0 (no effect) to 100 (complete control)
[8] = Postemergence, 125 g ai/ha, 0 is no effect, 100 is complete control
[9] = Postemergence, 500 g ai/ha, 0 is no effect, 100 is complete control
[10] = Preemergence, 125 g ai/ha, 0 no effect, 100 complete control
[11] = 62 g ai/ha, Preemergence, scale 0 to 100
[12] = 31 g ai/ha, scale 0 to 100 (0 no effect, 100 complete control)
[13] = 62 g ai/ha, scale 0 to 100, 0 no effect, 100 complete control, 13 to 15 days
[14] = 125 g ai/ha, scale 0 to 100, 0 no effect, 100 complete control, 13 to 15 days
[15] = 250 g ai/ha, scale 0 to 100, 0 no effect, 100 complete control, 13 to 15 days
[16] = 62 g ai/ha, scale 0 to 100 (0 no effect, 100 complete control)

Cn1nc(C(F)(F)F)c(C(Cl)S(=O)(=O)c2cccc[n+]2[O-])c1OCC(F)(F)F (racemic) [Compound 36]
Bermudagrass plant response rating (bermudagrass; [4]): 100
Bermudagrass plant response rating (bermudagrass; [5]): 100
Plant response rating, Bermudagrass (bermudagrass; [6]): 85
Bermudagrass plant response rating (bermudagrass; [7]): 100
Foxtail, Giant plant response rating (giant foxtail; [8]): 40
Foxtail, Giant plant response rating (giant foxtail; [9]): 70
Foxtail, Giant plant response rating (giant foxtail; [10]): 100
Plant response rating, Foxtail, Giant (giant foxtail; Preemergence, 500 g ai/ha): 100
Lambsquarters plant response rating (lambsquarters; [11]): 60
Lambsquarters plant response rating (lambsquarters; [5]): 80
Plant response rating, Lambsquarters (lambsquarters; Preemergence): 0
Lambsquarters plant response rating (lambsquarters; [7]): 95
Nightshade plant response rating (eastern black nightshade; [11]): 70
Nightshade plant response rating (eastern black nightshade; [5]): 80
Plant response rating, Nightshade (eastern black nightshade; Preemergence, 31 g ai/ha, scale 0 to 100 (0 no effect, 100 complete control)): 70
Nightshade plant response rating (eastern black nightshade; [7]): 80
Surinam Grass plant response rating (Surinam grass; [11]): 80
Surinam Grass plant response rating (Surinam grass; [5]): 100
Plant response rating, Surinam Grass (Surinam grass; Preemergence): 50
Surinam Grass plant response rating (Surinam grass; [7]): 100
Goosegrass plant response rating (Goosegrass; [11]): 100
Goosegrass plant response rating (Goosegrass; [5]): 100
Plant response rating, Goosegrass (Goosegrass; Preemergence): 85
Goosegrass plant response rating (Goosegrass; [7]): 100
Pigweed plant response rating (redroot pigweed; [8]): 10
Pigweed plant response rating (redroot pigweed; [9]): 60
Pigweed plant response rating (redroot pigweed; [10]): 100
Plant response rating, Pigweed (redroot pigweed; Preemergence, 500 g ai/ha): 100
Wheat plant response rating (wheat [1]; [11]): 0
Wheat plant response rating (wheat [1]; [5]): 0
Plant response rating, Wheat (wheat [1]; Preemergence): 0
Wheat plant response rating (wheat [1]; [7]): 15
Crabgrass, Large plant response rating (crabgrass; [11]): 80
Crabgrass, Large plant response rating (crabgrass; [5]): 100
Plant response rating, Crabgrass, Large (crabgrass; Preemergence): 65
Crabgrass, Large plant response rating (crabgrass; [7]): 100
Corn plant response rating (corn; [8]): 0
Corn plant response rating (corn; [9]): 0
Corn plant response rating (corn; [10]): 0
Plant response rating, Corn (corn; Preemergence, 500 g ai/ha): 0
Pigweed plant response rating (pigweed; [11]): 90
Pigweed plant response rating (pigweed; [5]): 100
Plant response rating, Pigweed (pigweed; Preemergence): 80
Pigweed plant response rating (pigweed; [7]): 100
Plant response rating, Sedge, Umbrella (umbrella sedge; [12]): 80
Plant response rating, Sedge, Umbrella (umbrella sedge; [13]): 85
Plant response rating, Sedge, Umbrella (umbrella sedge; [14]): 95
Plant response rating, Sedge, Umbrella (umbrella sedge; [15]): 100
Plant response rating, Rice (rice; [12]): 0
Plant response rating, Rice (rice; [13]): 25
Plant response rating, Rice (rice; [14]): 60
Plant response rating, Rice (rice; [15]): 75
Morningglory plant response rating (morningglory; [8]): 0
Morningglory plant response rating (morningglory; [9]): 30
Morningglory plant response rating (morningglory; [10]): 0
Plant response rating, Morningglory (morningglory; Preemergence, 500 g ai/ha): 80
Sunflower plant response rating [2, 11]: 0
Sunflower plant response rating [2, 5]: 0
Plant response rating, Sunflower ([2]; Preemergence): 0
Sunflower plant response rating [2, 7]: 0
Wheat plant response rating (wheat [3]; [8]): 0
Wheat plant response rating (wheat [3]; [9]): 50
Wheat plant response rating (wheat [3]; [10]): 20
Plant response rating, Wheat (wheat [3]; Preemergence, 500 g ai/ha): 60
Barnyardgrass plant response rating (barnyardgrass; [8]): 40
Barnyardgrass plant response rating (barnyardgrass; [9]): 80
Barnyardgrass plant response rating (barnyardgrass; [10]): 100
Plant response rating, Barnyardgrass (barnyardgrass; Preemergence, 500 g ai/ha): 100

CCc1cc[n+]([O-])c(S(=O)(=O)Cc2c(C(F)(F)F)nn(C)c2OCC(F)(F)F)c1 [Compound 60]
Bermudagrass plant response rating (bermudagrass; [4]): 100
Bermudagrass plant response rating (bermudagrass; [5]): 100
Plant response rating, Bermudagrass (bermudagrass; [6]): 100
Bermudagrass plant response rating (bermudagrass; [7]): 100
Plant response rating, Foxtail, Giant (giant foxtail; Postemergence, 125 g ai/ha): 60
Foxtail, Giant plant response rating (giant foxtail; [9]): 90
Foxtail, Giant plant response rating (giant foxtail; [10]): 100
Plant response rating, Foxtail, Giant (giant foxtail; Preemergence, 500 g ai/ha): 100
Lambsquarters plant response rating (lambsquarters; [11]): 100
Lambsquarters plant response rating (lambsquarters; [5]): 100
Plant response rating, Lambsquarters (lambsquarters; Preemergence): 100
Lambsquarters plant response rating (lambsquarters; [7]): 100
Nightshade plant response rating (eastern black nightshade; [11]): 80
Nightshade plant response rating (eastern black nightshade; [5]): 100
Nightshade plant response rating (eastern black nightshade; [7]): 100
Surinam Grass plant response rating (Surinam grass; [11]): 100
Surinam Grass plant response rating (Surinam grass; [5]): 100
Plant response rating, Surinam Grass (Surinam grass; Preemergence): 95
Surinam Grass plant response rating (Surinam grass; [7]): 100
Goosegrass plant response rating (Goosegrass; [11]): 100
Goosegrass plant response rating (Goosegrass; [5]): 100
Plant response rating, Goosegrass (Goosegrass; Preemergence): 100
Goosegrass plant response rating (Goosegrass; [7]): 100
Plant response rating, Pigweed (redroot pigweed; Postemergence, 125 g ai/ha): 60
Pigweed plant response rating (redroot pigweed; [9]): 80
Pigweed plant response rating (redroot pigweed; [10]): 100
Plant response rating, Pigweed (redroot pigweed; Preemergence, 500 g ai/ha): 100
Wheat plant response rating (wheat [1]; [11]): 15
Wheat plant response rating (wheat [1]; [5]): 30
Plant response rating, Wheat (wheat [1]; Preemergence): 0
Wheat plant response rating (wheat [1]; [7]): 100
Crabgrass, Large plant response rating (crabgrass; [11]): 100
Crabgrass, Large plant response rating (crabgrass; [5]): 100
Plant response rating, Crabgrass, Large (crabgrass; Preemergence): 100
Crabgrass, Large plant response rating (crabgrass; [7]): 100
Plant response rating, Corn (corn; Postemergence, 125 g ai/ha): 30
Corn plant response rating (corn; [9]): 60
Corn plant response rating (corn; [10]): 0
Plant response rating, Corn (corn; Preemergence, 500 g ai/ha): 50
Pigweed plant response rating (pigweed; [11]): 100
Pigweed plant response rating (pigweed; [5]): 100
Plant response rating, Pigweed (pigweed; Preemergence): 100
Pigweed plant response rating (pigweed; [7]): 100
Plant response rating, Sedge, Umbrella (umbrella sedge; [16]): 0
Plant response rating, Sedge, Umbrella (umbrella sedge; [15]): 80
Plant response rating, Rice (rice; [16]): 0
Plant response rating, Rice (rice; [15]): 20
Plant response rating, Morningglory (morningglory; Postemergence, 125 g ai/ha): 50
Morningglory plant response rating (morningglory; [9]): 60
Morningglory plant response rating (morningglory; [10]): 70
Plant response rating, Morningglory (morningglory; Preemergence, 500 g ai/ha): 100
Sunflower plant response rating [2, 11]: 55
Sunflower plant response rating [2, 5]: 70
Plant response rating, Sunflower ([2]; Preemergence): 40
Sunflower plant response rating [2, 7]: 80
Plant response rating, Wheat (wheat [3]; Postemergence, 125 g ai/ha): 50
Wheat plant response rating (wheat [3]; [9]): 60
Wheat plant response rating (wheat [3]; [10]): 50
Plant response rating, Wheat (wheat [3]; Preemergence, 500 g ai/ha): 70
Plant response rating, Barnyardgrass (barnyardgrass; Postemergence, 125 g ai/ha): 80
Barnyardgrass plant response rating (barnyardgrass; [9]): 90
Barnyardgrass plant response rating (barnyardgrass; [10]): 90
Plant response rating, Barnyardgrass (barnyardgrass; Preemergence, 500 g ai/ha): 100

Reference: US20100298141A1, “SUBSTITUTED PYRIDINE N-OXIDE HERBICIDES” (E. I. DU PONT DE NEMOURS AND COMPANY, priority 2007, published 2010)
